In ChEMBL document CHEMBL3525916, “Investigation of figopitant and its metabolites in rat tissue by combining whole-body autoradiography with liquid extraction surface analysis mass spectrometry” (Drug Metab Dispos, 2012):

What was measured:
Conditions in all cases: in vivo
[1] = tested on: Rattus norvegicus; experiment: Biodistribution in albino Wistar Hannover rat adrenal cortex at 5 mg/kg, iv after 4 hrs by autoradiography analysis; format: ADME, organism-based; parameters: dose 5 mg/kg, route intravenous
[2] = tested on: Liver; experiment: Biodistribution in albino Wistar Hannover rat liver at 5 mg/kg, iv after 4 hrs by autoradiography analysis; format: ADME, organism-based; parameters: dose 5 mg/kg, route intravenous
[3] = tested on: Thymus; experiment: Biodistribution in albino Wistar Hannover rat thymus at 5 mg/kg, iv after 24 hrs by autoradiography analysis; format: ADME, organism-based; parameters: dose 5 mg/kg, route intravenous
[4] = tested on: Thymus; experiment: Half life in albino Wistar Hannover rat thymus at 5 mg/kg, iv by autoradiography analysis; format: ADME, organism-based; parameters: dose 5 mg/kg, route intravenous
[5] = tested on: Plasma; experiment: Biodistribution in albino Wistar Hannover rat plasma at 5 mg/kg, iv after 24 hrs by liquid scintillation counting; format: ADME, organism-based; parameters: dose 5 mg/kg, route intravenous
[6] = tested on: Rattus norvegicus; experiment: Biodistribution in albino Wistar Hannover rat testis at 5 mg/kg, iv after 4 hrs by autoradiography analysis; format: ADME, organism-based; parameters: dose 5 mg/kg, route intravenous
[7] = tested on: Pituitary gland; experiment: Biodistribution in albino Wistar Hannover rat pituitary at 5 mg/kg, iv after 5 mins by autoradiography analysis; format: ADME, organism-based; parameters: dose 5 mg/kg, route intravenous
[8] = Drug uptake in albino Wistar Hannover rat brown fat at 5 mg/kg, iv by LESA-MS analysis; format: ADME, organism-based, Brown adipose tissue; parameters: dose 5 mg/kg, route intravenous
[9] = tested on: Rattus norvegicus; experiment: Biodistribution in albino Wistar Hannover rat epididymis at 5 mg/kg, iv after 5 mins by autoradiography analysis; format: ADME, organism-based; parameters: dose 5 mg/kg, route intravenous
[10] = tested on: Lung; experiment: Half life in albino Wistar Hannover rat lung at 5 mg/kg, iv by autoradiography analysis; format: ADME, organism-based; parameters: dose 5 mg/kg, route intravenous
[11] = Half life in albino Wistar Hannover rat adipose tissue at 5 mg/kg, iv by autoradiography analysis; format: ADME, organism-based; parameters: dose 5 mg/kg, route intravenous
[12] = tested on: Pancreas; experiment: Biodistribution in albino Wistar Hannover rat pancreas at 5 mg/kg, iv after 4 hrs by autoradiography analysis; format: ADME, organism-based; parameters: dose 5 mg/kg, route intravenous
[13] = Retention time in albino Wistar Hannover rat at 5 mg/kg, iv; format: ADME, organism-based; parameters: dose 5 mg/kg, route intravenous
[14] = tested on: Rattus norvegicus; experiment: Biodistribution in albino Wistar Hannover rat salivary gland at 5 mg/kg, iv after 4 hrs by autoradiography analysis; format: ADME, organism-based; parameters: dose 5 mg/kg, route intravenous
[15] = tested on: Brain; experiment: Biodistribution in albino Wistar Hannover rat brain at 5 mg/kg, iv after 5 mins by autoradiography analysis; format: ADME, organism-based; parameters: dose 5 mg/kg, route intravenous
[16] = tested on: Rattus norvegicus; experiment: Biodistribution in albino Wistar Hannover rat tongue at 5 mg/kg, iv after 5 mins by autoradiography analysis; format: ADME, organism-based; parameters: dose 5 mg/kg, route intravenous
[17] = Half life in albino Wistar Hannover rat salivary gland at 5 mg/kg, iv by autoradiography analysis; format: ADME, organism-based; parameters: dose 5 mg/kg, route intravenous
[18] = tested on: Kidney; experiment: Drug uptake in albino Wistar Hannover rat outer medulla of kidney at 5 mg/kg, iv by LESA-MS analysis; format: ADME, organism-based; parameters: dose 5 mg/kg, route intravenous
[19] = tested on: Rattus norvegicus; experiment: Biodistribution in albino Wistar Hannover rat adipose tissue at 5 mg/kg, iv after 4 hrs by autoradiography analysis; format: ADME, organism-based; parameters: dose 5 mg/kg, route intravenous
[20] = tested on: Lung; experiment: Biodistribution in albino Wistar Hannover rat lung at 5 mg/kg, iv after 24 hrs by autoradiography analysis; format: ADME, organism-based; parameters: dose 5 mg/kg, route intravenous
[21] = Drug uptake in albino Wistar Hannover rat myocardium at 5 mg/kg, iv by LESA-MS analysis; format: ADME, organism-based; parameters: dose 5 mg/kg, route intravenous
[22] = tested on: Brain; experiment: Drug uptake in albino Wistar Hannover rat brain at 5 mg/kg, iv by LESA-MS analysis; format: ADME, organism-based; parameters: dose 5 mg/kg, route intravenous
[23] = tested on: Zone of skin; experiment: Biodistribution in albino Wistar Hannover rat skin at 5 mg/kg, iv after 5 mins by autoradiography analysis; format: ADME, organism-based; parameters: dose 5 mg/kg, route intravenous
[24] = tested on: Spleen; experiment: Drug uptake in albino Wistar Hannover rat spleen at 5 mg/kg, iv by LESA-MS analysis; format: ADME, organism-based; parameters: dose 5 mg/kg, route intravenous
[25] = tested on: Brain; experiment: Half life in albino Wistar Hannover rat brain at 5 mg/kg, iv by autoradiography analysis; format: ADME, organism-based; parameters: dose 5 mg/kg, route intravenous
[26] = tested on: Rattus norvegicus; experiment: Biodistribution in albino Wistar Hannover rat adipose tissue at 5 mg/kg, iv after 24 hrs by autoradiography analysis; format: ADME, organism-based; parameters: dose 5 mg/kg, route intravenous
[27] = tested on: Zone of skin; experiment: Biodistribution in albino Wistar Hannover rat skin at 5 mg/kg, iv after 24 hrs by autoradiography analysis; format: ADME, organism-based; parameters: dose 5 mg/kg, route intravenous
[28] = tested on: Rattus norvegicus; experiment: Biodistribution in albino Wistar Hannover rat bone marrow at 5 mg/kg, iv after 5 mins by autoradiography analysis; format: ADME, organism-based; parameters: dose 5 mg/kg, route intravenous
[29] = tested on: Liver; experiment: Drug uptake in albino Wistar Hannover rat liver at 5 mg/kg, iv
[30] = tested on: Plasma; experiment: Biodistribution in albino Wistar Hannover rat plasma at 5 mg/kg, iv after 5 mins by liquid scintillation counting; format: ADME, organism-based; parameters: dose 5 mg/kg, route intravenous
[31] = Half life in albino Wistar Hannover rat testis at 5 mg/kg, iv by autoradiography analysis; format: ADME, organism-based; parameters: dose 5 mg/kg, route intravenous
[32] = tested on: Zone of skin; experiment: Biodistribution in albino Wistar Hannover rat skin at 5 mg/kg, iv after 4 hrs by autoradiography analysis; format: ADME, organism-based; parameters: dose 5 mg/kg, route intravenous
[33] = tested on: Pancreas; experiment: Drug uptake in albino Wistar Hannover rat pancreas at 5 mg/kg, iv by LESA-MS analysis; format: ADME, organism-based; parameters: dose 5 mg/kg, route intravenous
[34] = tested on: Rattus norvegicus; experiment: Biodistribution in albino Wistar Hannover rat renal cortex at 5 mg/kg, iv after 5 mins by autoradiography analysis; format: ADME, organism-based; parameters: dose 5 mg/kg, route intravenous
[35] = tested on: Rattus norvegicus; experiment: Biodistribution in albino Wistar Hannover rat tongue at 5 mg/kg, iv after 24 hrs by autoradiography analysis; format: ADME, organism-based; parameters: dose 5 mg/kg, route intravenous
[36] = tested on: Pancreas; experiment: Biodistribution in albino Wistar Hannover rat pancreas at 5 mg/kg, iv after 5 mins by autoradiography analysis; format: ADME, organism-based; parameters: dose 5 mg/kg, route intravenous
[37] = tested on: Liver; experiment: Biodistribution in albino Wistar Hannover rat liver at 5 mg/kg, iv after 24 hrs by autoradiography analysis; format: ADME, organism-based; parameters: dose 5 mg/kg, route intravenous
[38] = tested on: Rattus norvegicus; experiment: Biodistribution in albino Wistar Hannover rat muscle cranial at 5 mg/kg, iv after 24 hrs by autoradiography analysis; format: ADME, organism-based, Muscle tissue; parameters: dose 5 mg/kg, route intravenous
[39] = tested on: Brain; experiment: Biodistribution in albino Wistar Hannover rat brain at 5 mg/kg, iv after 4 hrs by autoradiography analysis; format: ADME, organism-based; parameters: dose 5 mg/kg, route intravenous
[40] = tested on: Plasma; experiment: Biodistribution in albino Wistar Hannover rat plasma at 5 mg/kg, iv after 4 hrs by liquid scintillation counting; format: ADME, organism-based; parameters: dose 5 mg/kg, route intravenous
[41] = tested on: Brain; experiment: Biodistribution in albino Wistar Hannover rat brain at 5 mg/kg, iv after 24 hrs by autoradiography analysis; format: ADME, organism-based; parameters: dose 5 mg/kg, route intravenous
[42] = tested on: Pancreas; experiment: Biodistribution in albino Wistar Hannover rat pancreas at 5 mg/kg, iv after 24 hrs by autoradiography analysis; format: ADME, organism-based; parameters: dose 5 mg/kg, route intravenous
[43] = tested on: Liver; experiment: Biodistribution in albino Wistar Hannover rat liver at 5 mg/kg, iv after 5 mins by autoradiography analysis; format: ADME, organism-based; parameters: dose 5 mg/kg, route intravenous
[44] = tested on: Harderian gland; experiment: Biodistribution in albino Wistar Hannover rat harderian gland at 5 mg/kg, iv after 4 hrs by autoradiography analysis; format: ADME, organism-based; parameters: dose 5 mg/kg, route intravenous
[45] = tested on: Muscle tissue; experiment: Drug uptake in albino Wistar Hannover rat muscle at 5 mg/kg, iv by LESA-MS analysis; format: ADME, organism-based; parameters: dose 5 mg/kg, route intravenous
[46] = Drug uptake in albino Wistar Hannover rat testis at 5 mg/kg, iv by LESA-MS analysis; format: ADME, organism-based; parameters: dose 5 mg/kg, route intravenous
[47] = tested on: Stomach; experiment: Drug uptake in albino Wistar Hannover rat stomach at 5 mg/kg, iv by LESA-MS analysis; format: ADME, organism-based; parameters: dose 5 mg/kg, route intravenous
[48] = tested on: Harderian gland; experiment: Biodistribution in albino Wistar Hannover rat harderian gland at 5 mg/kg, iv after 24 hrs by autoradiography analysis; format: ADME, organism-based; parameters: dose 5 mg/kg, route intravenous
[49] = tested on: Rattus norvegicus; experiment: Biodistribution in albino Wistar Hannover rat muscle caudal at 5 mg/kg, iv after 24 hrs by autoradiography analysis; format: ADME, organism-based, Muscle tissue; parameters: dose 5 mg/kg, route intravenous
[50] = tested on: Rattus norvegicus; experiment: Biodistribution in albino Wistar Hannover rat testis at 5 mg/kg, iv after 5 mins by autoradiography analysis; format: ADME, organism-based; parameters: dose 5 mg/kg, route intravenous
[51] = tested on: Lung; experiment: Drug uptake in albino Wistar Hannover rat lung at 5 mg/kg, iv by LESA-MS analysis; format: ADME, organism-based; parameters: dose 5 mg/kg, route intravenous
[52] = tested on: Rattus norvegicus; experiment: Biodistribution in albino Wistar Hannover rat bone marrow at 5 mg/kg, iv after 24 hrs by autoradiography analysis; format: ADME, organism-based; parameters: dose 5 mg/kg, route intravenous
[53] = tested on: Rattus norvegicus; experiment: Biodistribution in albino Wistar Hannover rat salivary gland at 5 mg/kg, iv after 5 mins by autoradiography analysis; format: ADME, organism-based; parameters: dose 5 mg/kg, route intravenous

Drug uptake [1]: 11078 ngequiv/g
Drug uptake [2]: 13851 ngequiv/g
Drug uptake [3]: 1746 ngequiv/g
t1/2 [4]: 22.7 h
Drug uptake [5]: 80 ngequiv/g
Drug uptake [6]: 1510 ngequiv/g
Drug uptake [7]: 8110 ngequiv/g
Drug uptake [8]: 47.1%
Drug uptake [9]: 1728 ngequiv/g
t1/2 [10]: 20.5 h
t1/2 [11]: 27.1 h
Drug uptake [12]: 12820 ngequiv/g
Retention time [13]: 0.358 h
Drug uptake [14]: 8238 ngequiv/g
Drug uptake [15]: 1912 ngequiv/g
Drug uptake [16]: 12885 ngequiv/g
t1/2 [17]: 20.3 h
Drug uptake [18]: 20.8%
Drug uptake [19]: 537 ngequiv/g
Drug uptake [20]: 1708 ngequiv/g
Drug uptake [21]: 22.6%
Drug uptake [22]: 75.6%
Drug uptake [23]: 1743 ngequiv/g
Drug uptake [24]: 30.9%
t1/2 [25]: 32.7 h
Drug uptake [26]: 113 ngequiv/g
Drug uptake [27]: 606 ngequiv/g
Drug uptake [28]: 4445 ngequiv/g
Drug uptake [29]: 12.9%
Drug uptake [30]: 483 ngequiv/g
t1/2 [31]: 95.6 h
Drug uptake [32]: 1997 ngequiv/g
Drug uptake [33]: 23.7%
Drug uptake [34]: 19088 ngequiv/g
Drug uptake [35]: 891 ngequiv/g
Drug uptake [36]: 17869 ngequiv/g
Drug uptake [37]: 4793 ngequiv/g
Drug uptake [38]: 671 ngequiv/g
Drug uptake [39]: 122 ngequiv/g
Drug uptake [40]: 192 ngequiv/g
Drug uptake [41]: 50 ngequiv/g
Drug uptake [42]: 4138 ngequiv/g
Drug uptake [43]: 5984 ngequiv/g
Drug uptake [44]: 13941 ngequiv/g
Drug uptake [45]: 36.5%
Drug uptake [46]: 79.5%
Drug uptake [47]: 34.6%
Drug uptake [48]: 6246 ngequiv/g
Drug uptake [49]: 670 ngequiv/g
Drug uptake [50]: 938 ngequiv/g
Drug uptake [51]: 38.9%
Drug uptake [52]: 1156 ngequiv/g
Drug uptake [53]: 10729 ngequiv/g
SMILES: CN(CCc1cc(C(F)(F)F)cc(C(F)(F)F)c1)C(=O)[C@H](c1ccccc1)N1CCN(CC2CC2)CC1.Cl.O
